# Test results reported in PubChem BioAssay AID1259411 (Chemical Carcinogenesis Research Information System (CCRIS), 2018).
# Calls of active or inactive are those of the source. How the calls were made is not given here.
# Tested on: rodent carcinogenicity bioassays, tumor incidence
# Test: CCRIS carcinogenicity studies
# Details: Dose: 0, Dose: 0
# Outline: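 Archive of carcinogenicity, mutagenicity, tumor promotion and tumor inhibition results drawn from journals, NCI reports and other sources, expert-reviewed; covers 1985-2011 and is no longer updated.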
smiles,measurement,setting,value
OC(O)C(Cl)(Cl)Cl,carcinogen call,"Species: MOUSE, Strain/Sex: B6C3F1/FEMALE, Route: GAVAGE, 10, 25, 50 MG/KG BW ONCE AT 15 DAYS OF AGE (STUDY DURATION: 104 WK), 10, 25, 50 MG/KG BW ONCE AT 15 DAYS OF AGE (STUDY DURATION: 104 WK)",inactive; negative
same,carcinogen call,"Species: MOUSE, Strain/Sex: B6C3F1/FEMALE, Route: GAVAGE, 25, 50, 100 MG/KG 5 D/WK FOR 104 WK (STUDY DURATION: 104 WK), 25, 50, 100 MG/KG 5 D/WK FOR 104 WK (STUDY DURATION: 104 WK), Tumor Site: Type of Lesion: PITUITARY GLAND (PARS DISTALIS): ADENOMA",equivocal
same,carcinogen call,"Species: MOUSE, Strain/Sex: B6C3F1/FEMALE, Route: GAVAGE, 25, 50, 100 MG/KG BW ONCE AT 28 DAYS OF AGE (STUDY DURATION: 104 WK), 25, 50, 100 MG/KG BW ONCE AT 28 DAYS OF AGE (STUDY DURATION: 104 WK)",inactive; negative
same,carcinogen call,"Species: MOUSE, Strain/Sex: B6C3F1/FEMALE, Route: GAVAGE, 100 MG/KG BW 5 D/WK FOR 3 MO (STUDY DURATION: 104 WK), Tumor Site: Type of Lesion: PITUITARY GLAND (PARS DISTALIS): ADENOMA",equivocal
same,carcinogen call,"Species: MOUSE, Strain/Sex: B6C3F1/FEMALE, Route: GAVAGE, 100 MG/KG BW 5 D/WK FOR 6 MO (STUDY DURATION: 104 WK), Tumor Site: Type of Lesion: PITUITARY GLAND (PARS DISTALIS): ADENOMA",equivocal
same,carcinogen call,"Species: MOUSE, Strain/Sex: B6C3F1/FEMALE, Route: GAVAGE, 100 MG/KG BW 5 D/WK FOR 12 MO (STUDY DURATION: 104 WK), Tumor Site: Type of Lesion: PITUITARY GLAND (PARS DISTALIS): ADENOMA",equivocal
same,carcinogen call,"Species: MOUSE, Strain/Sex: B6C3F1/FEMALE, Route: INTRAPERITONEAL, 1000 NMOL TOTAL DOSE, 1/3 AND 2/3 OF THE TOTAL DOSE ADMINISTERED AT 8 AND 15 DAYS OF AGE RESPECTIVELY, ANIMALS TERMIN",inactive; negative
same,carcinogen call,"Species: MOUSE, Strain/Sex: B6C3F1/FEMALE, Route: INTRAPERITONEAL, 2000 NMOL TOTAL DOSE, 3/7 AND 4/7 OF THE TOTAL DOSE ADMINISTERED AT 8 AND 15 DAYS OF AGE RESPECTIVELY, ANIMALS TERMIN",inactive; negative
same,carcinogen call,"Species: MOUSE, Strain/Sex: B6C3F1/MALE, Route: GAVAGE, 10, 25, 50 MG/KG BW ONCE AT 15 DAYS OF AGE (STUDY DURATION: 104 WK), 10, 25, 50 MG/KG BW ONCE AT 15 DAYS OF AGE (STUDY DURATION: 104 WK)",inactive; negative
same,carcinogen call,"Species: MOUSE, Strain/Sex: B6C3F1/MALE, Route: GAVAGE, 25, 50, 100 MG/KG IN WATER 5X/WK FOR STUDY DURATION WITH AD LIBITUM FEEDING (STUDY DURATION: 104-105 WK), 25, 50, 100 MG/KG IN WATER 5X/WK FOR STUDY DURATION WITH AD LIBITUM FEEDING (STUDY DURATION: 104-105 WK), Tumor Site: Type of Lesion: LIVER: HEPATOCELLULAR ADENOMA OR CARCINOMA",active; positive
same,carcinogen call,"Species: MOUSE, Strain/Sex: B6C3F1/MALE, Route: GAVAGE, 25, 50, 100 MG/KG IN WATER 5X/WK FOR STUDY DURATION WITH DIETARY-CONTROLLED FEEDING TO MAINTAIN IDEAL BODY WEIGHT (ST, 25, 50, 100 MG/KG IN WATER 5X/WK FOR STUDY DURATION WITH DIETARY-CONTROLLED FEEDING TO MAINTAIN IDEAL BODY WEIGHT (ST, Tumor Site: Type of Lesion: LIVER: HEPATOCELLULAR ADENOMA OR CARCINOMA",active; positive
same,carcinogen call,"Species: MOUSE, Strain/Sex: B6C3F1/MALE, Route: INTRAPERITONEAL, 1000 NMOL TOTAL DOSE, 1/3 AND 2/3 OF THE TOTAL DOSE ADMINISTERED AT 8 AND 15 DAYS OF AGE RESPECTIVELY, ANIMALS TERMIN",inactive; negative
same,carcinogen call,"Species: MOUSE, Strain/Sex: B6C3F1/MALE, Route: INTRAPERITONEAL, 2000 NMOL TOTAL DOSE, 3/7 AND 4/7 OF THE TOTAL DOSE ADMINISTERED AT 8 AND 15 DAYS OF AGE RESPECTIVELY, ANIMALS TERMIN",inactive; negative
same,carcinogen call,"Species: MOUSE, Strain/Sex: B6C3F1/MALE, Route: ORAL, 0.05, 0.5, 1 G/L IN DRINKING WATER FOR 104 WK (STUDY DURATION: 104 WK), 0.05, 0.5, 1 G/L IN DRINKING WATER FOR 104 WK (STUDY DURATION: 104 WK), Tumor Site: Type of Lesion: LIVER: HEPATOCELLULAR ADENOMA OR CARCINOMA",active; positive
same,carcinogen call,"Species: MOUSE, Strain/Sex: B6C3F1/MALE, Route: ORAL, 1 G/L DISTILLED DRINKING WATER FOR STUDY DURATION (166 MG/KG/D) (STUDY DURATION: 104 WK), Tumor Site: Type of Lesion: LIVER: HEPATOCELLULAR CARCINOMA, HEPATOCELLULAR ADENOMA",active; positive
same,carcinogen call,"Species: RAT, Strain/Sex: F344/N/MALE, Route: ORAL, 0.05, 0.5, 2 G/L IN DRINKING WATER FOR 104 WK (STUDY DURATION: 104 WK), 0.05, 0.5, 2 G/L IN DRINKING WATER FOR 104 WK (STUDY DURATION: 104 WK)",inactive; negative
same,carcinogen call,"Species: RAT, Strain/Sex: SPRAGUE-DAWLEY/FEMALE, Route: ORAL, 15, 45, 135 MG/KG BW/D IN DRINKING WATER FOR 128 WK (STUDY DURATION: 128 WK), 15, 45, 135 MG/KG BW/D IN DRINKING WATER FOR 128 WK (STUDY DURATION: 128 WK)",inactive; negative
same,carcinogen call,"Species: RAT, Strain/Sex: SPRAGUE-DAWLEY/MALE, Route: ORAL, 15, 45, 135 MG/KG BW/D IN DRINKING WATER FOR 124 WK (STUDY DURATION: 124 WK), 15, 45, 135 MG/KG BW/D IN DRINKING WATER FOR 124 WK (STUDY DURATION: 124 WK)",inactive; negative
CCCCC1C(=O)N(c2ccccc2)N(c2ccccc2)C1=O,carcinogen call,"Species: MOUSE, Strain/Sex: B6C3F1/FEMALE, Route: GAVAGE, 150, 300 MG/KG IN CORN OIL 5 D/WK FOR 103 WK (STUDY DURATION: 107 WK), 150, 300 MG/KG IN CORN OIL 5 D/WK FOR 103 WK (STUDY DURATION: 107 WK)",inactive; negative
same,carcinogen call,"Species: MOUSE, Strain/Sex: B6C3F1/MALE, Route: GAVAGE, 150, 300 MG/KG IN CORN OIL 5 D/WK FOR 103 WK (STUDY DURATION: 107 WK), 150, 300 MG/KG IN CORN OIL 5 D/WK FOR 103 WK (STUDY DURATION: 107 WK), Tumor Site: Type of Lesion: LIVER: HEPATOCELLULAR ADENOMA, HEPATOCELLULAR ADENOMA OR CARCINOMA",active; positive
same,carcinogen call,"Species: RAT, Strain/Sex: F344/FEMALE, Route: GAVAGE, 50, 100 MG/KG IN CORN OIL 5 D/WK FOR 103 WK (STUDY DURATION: 103 WK), 50, 100 MG/KG IN CORN OIL 5 D/WK FOR 103 WK (STUDY DURATION: 103 WK), Tumor Site: Type of Lesion: KIDNEY: TRANSITIONAL EPITHELIAL CARCINOMA, TUBULAR CELL ADENOMA",active; positive
same,carcinogen call,"Species: RAT, Strain/Sex: F344/MALE, Route: GAVAGE, 50, 100 MG/KG IN CORN OIL 5 D/WK FOR 103 WK (STUDY DURATION: 103 WK), 50, 100 MG/KG IN CORN OIL 5 D/WK FOR 103 WK (STUDY DURATION: 103 WK), Tumor Site: Type of Lesion: KIDNEY: TUBULAR CELL ADENOMA, TUBULAR CELL ADENOMA OR CARCINOMA",equivocal
